Test results from patent publication US20260159512A1, “BCAT2 INHIBITORS” (AGIOS PHARMACEUTICALS, INC., priority 2021, published 2026).
pIC50: −log10 of the molar value.

Key:
BCAT2 [1] = target: T1, BCAT2 (Homo sapiens, UniProt O15382); experiment: BCAT2 in vitro enzyme inhibition assay (resazurin/diaphorase-coupled fluorescence); type: biochemical; details: average where tested multiple times
T1 sequence (O15382 28-392): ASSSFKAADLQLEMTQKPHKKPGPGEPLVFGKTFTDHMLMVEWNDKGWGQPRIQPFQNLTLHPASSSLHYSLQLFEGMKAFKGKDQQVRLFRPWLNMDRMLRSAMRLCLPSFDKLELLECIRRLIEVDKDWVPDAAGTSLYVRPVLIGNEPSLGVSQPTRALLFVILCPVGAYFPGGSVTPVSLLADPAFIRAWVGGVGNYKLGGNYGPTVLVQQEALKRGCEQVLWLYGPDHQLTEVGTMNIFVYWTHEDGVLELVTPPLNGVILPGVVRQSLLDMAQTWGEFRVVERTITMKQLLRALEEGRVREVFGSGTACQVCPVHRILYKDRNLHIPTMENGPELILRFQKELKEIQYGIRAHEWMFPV
Summary of the method: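 Coupled fluorescence readout: glutamate formed from L-leucine/α-ketoglutarate transamination drives GDH/NAD/diaphorase reduction of resazurin (Ex 540/Em 590). Human BCAT2 was first exposed 1 h at room temperature to compound, top final 100 μM in 3-fold, 10-point series; substrate reaction ran 1 h before SDS quench, in technical duplicate with DMSO max and enzyme-free min controls.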

BCAT2 [2] = target: T1, BCAT2; experiment: BCAT2 in vitro cell inhibition using engineered A549 cells (KMV cell assay, 13C6-KMV by LC-MS/MS); type: cell-based; set-up: The result was an engineered A549 cell line that expressed endogenous BCAT2; endogenous in cells; host or cells: A549 cells with MUT and BCAT1 knocked out by CRISPR/CAS9; key to BCAT2 Cell Inhibition: A: less than or equal to 0.100 μM; B: greater than 0.100 and less than or equal to 0.500 μM; C: greater than 0.500 and less than or equal to 1.000 μM; d: greater than 1.000 μM; E: no fit; details: average where tested multiple times

pIC50 (BCAT2 [1])	BCAT2 Cell Inhibition (BCAT2 [2])	pIC50 (BCAT2 [2])	Structure (SMILES)
< 6.00	E		CC(C)Cc1nc2cnc(N3CCC[C@H]3C(N)=O)cc2n1[C@@H]1CCC[C@H](NC(=O)c2ncc(Cl)s2)C1 [Example 307, N-((1S,3R)-3-(6-((S)-2-carbamoylpyrrolidin-1-yl)-2-isobutyl-1H-imidazo[4,5-c]pyridin-1-yl)cyclohexyl)-5-chlorothiazole-2-carboxamide]
< 6.00	E		CC(C)Cc1nc2cnc(N3CCC[C@@H]3C(N)=O)cc2n1[C@@H]1CCC[C@H](NC(=O)c2ncc(Cl)s2)C1 [Example 308, N-((1S,3R)-3-(6-((R)-2-carbamoylpyrrolidin-1-yl)-2-isobutyl-1H-imidazo[4,5-c]pyridin-1-yl)cyclohexyl)-5-chlorothiazole-2-carboxamide]
< 6.00	E		CC(C)Cc1nc2cnc(N3CCC[C@H]3C#N)cc2n1[C@@H]1CCC[C@H](NC(=O)c2ncc(Cl)s2)C1 [Example 309, 5-chloro-N-((1S,3R)-3-(6-((S)-2-cyanopyrrolidin-1-yl)-2-isobutyl-1H-imidazo[4,5-c]pyridin-1-yl)cyclohexyl)thiazole-2-carboxamide]
< 6.00	E		CC(C)Cc1nc2cnc(N3CCC[C@@H]3C#N)cc2n1[C@@H]1CCC[C@H](NC(=O)c2ncc(Cl)s2)C1 [Example 310, 5-chloro-N-((1S,3R)-3-(6-((R)-2-cyanopyrrolidin-1-yl)-2-isobutyl-1H-imidazo[4,5-c]pyridin-1-yl)cyclohexyl)thiazole-2-carboxamide]
6.30 to 7.00		< 6.00	CC(C)Cc1nc2cnc(-n3cncn3)cc2n1[C@@H]1CCC[C@H](NC(=O)c2ncc(Cl)s2)C1 [Example 323, 5-chloro-N-((1S,3R)-3-(2-isobutyl-6-(1H-1,2,4-triazol-1-yl)-1H-imidazo[4,5-c]pyridin-1-yl)cyclohexyl)thiazole-2-carboxamide]
6.30 to 7.00	E		CC(C)Cc1nc2cnc(-c3ccccc3C#N)cc2n1[C@@H]1CCC[C@H](NC(=O)c2ncc(Cl)s2)C1 [Example 335, 5-chloro-N-((1S,3R)-3-(6-(2-cyanophenyl)-2-isobutyl-1H-imidazo[4,5-c]pyridin-1-yl)cyclohexyl)thiazole-2-carboxamide]
6.30 to 7.00	E		CC(C)Cc1nc2cnc(-n3cc(C(C)O)nn3)cc2n1[C@@H]1CCC[C@H](NC(=O)c2ncc(Cl)s2)C1 (stereo partly drawn) [Example 359, 5-chloro-N-((1S,3R)-3-(6-(4-(1-hydroxyethyl)-1H-1,2,3-triazol-1-yl)-2-isobutyl-1H-imidazo[4,5-c]pyridin-1-yl)cyclohexyl)thiazole-2-carboxamide]

More lines, now with the values behind:

Structure (SMILES)	pIC50 (BCAT2 [1])	BCAT2 Cell Inhibition (BCAT2 [2])	pIC50 (BCAT2 [2])
CC(C)C(F)(F)c1nc2cnc(-c3ccccn3)cc2n1[C@@H]1CCC[C@H](NC(=O)c2ncc(Cl)s2)C1 [Example 318, 5-chloro-N-((1S,3R)-3-(2-(1,1-difluoro-2-methylpropyl)-6-(pyridin-2-yl)-1H-imidazo[4,5-c]pyridin-1-yl)cyclohexyl)thiazole-2-carboxamide]	6.00 to 6.30	E	
CC(C)Cc1nc2cnc(-c3ccccc3CC#N)cc2n1[C@@H]1CCC[C@H](NC(=O)c2ncc(Cl)s2)C1 [Example 333, 5-chloro-N-((1S,3R)-3-(6-(2-(cyanomethyl)phenyl)-2-isobutyl-1H-imidazo[4,5-c]pyridin-1-yl)cyclohexyl)thiazole-2-carboxamide]	< 6.00	E	
N#Cc1ccc(-c2nc3cnc(-c4nc[nH]n4)cc3n2[C@@H]2CCC[C@H](NC(=O)c3ccc(Cl)s3)C2)c(F)c1 [Example 353, 5-chloro-N-((1S,3R)-3-(2-(4-cyano-2-fluorophenyl)-6-(1H-1,2,4-triazol-3-yl)-1H-imidazo[4,5-c]pyridin-1-yl)cyclohexyl)thiophene-2-carboxamide]	< 6.00		< 6.00
CC(=O)N[C@@H](c1nc2cnc(-c3nc[nH]n3)cc2n1[C@@H]1CCC[C@H](NC(=O)c2ncc(Cl)s2)C1)C(C)C [Example 369, N-((1S,3R)-3-(2-((R)-1-acetamido-2-methylpropyl)-6-(1H-1,2,4-triazol-3-yl)-1H-imidazo[4,5-c]pyridin-1-yl)cyclohexyl)-5-chlorothiazole-2-carboxamide]	6.00 to 6.30	E	
COC(=O)N[C@H](c1nc2cnc(-c3nc[nH]n3)cc2n1[C@@H]1CCC[C@H](NC(=O)c2ncc(Cl)s2)C1)C(C)C [Example 370, methyl ((S)-1-(1-((1R,3S)-3-(5-chlorothiazole-2-carboxamido)cyclohexyl)-6-(1H-1,2,4-triazol-3-yl)-1H-imidazo[4,5-c]pyridin-2-yl)-2-methylpropyl)carbamate]	< 6.00	E	
COC(=O)N[C@@H](c1nc2cnc(-c3nc[nH]n3)cc2n1[C@@H]1CCC[C@H](NC(=O)c2ncc(Cl)s2)C1)C(C)C [Example 371, methyl ((R)-1-(1-((1R,3S)-3-(5-chlorothiazole-2-carboxamido)cyclohexyl)-6-(1H-1,2,4-triazol-3-yl)-1H-imidazo[4,5-c]pyridin-2-yl)-2-methylpropyl)carbamate]	< 6.00	E	
CCn1c(CO)nn(-c2cc3c(cn2)nc(CC(C)C)n3[C@@H]2CCC[C@H](NC(=O)c3ccc(Cl)s3)C2)c1=O [Example 373, 5-chloro-N-((1S,3R)-3-(6-(4-ethyl-3-(hydroxymethyl)-5-oxo-4,5-dihydro-1H-1,2,4-triazol-1-yl)-2-isobutyl-1H-imidazo[4,5-c]pyridin-1-yl)cyclohexyl)thiophene-2-carboxamide]	≥ 7.00		< 6.00
O=C(N[C@H]1CCC[C@@H](n2c(-c3ccccc3F)nc3cnc(-c4ncnn4C(F)F)cc32)C1)c1ncc(Cl)s1 [Example 376, 5-chloro-N-((1S,3R)-3-(6-(1-(difluoromethyl)-1H-1,2,4-triazol-5-yl)-2-(2-fluorophenyl)-1H-imidazo[4,5-c]pyridin-1-yl)cyclohexyl)thiazole-2-carboxamide]	6.00 to 6.30	E	
O=C(N[C@H]1CCC[C@@H](n2c(-c3ccccc3F)nc3cnc(-c4nncn4C(F)F)cc32)C1)c1ncc(Cl)s1 [Example 377, 5-chloro-N-((1S,3R)-3-(6-(4-(difluoromethyl)-4H-1,2,4-triazol-3-yl)-2-(2-fluorophenyl)-1H-imidazo[4,5-c]pyridin-1-yl)cyclohexyl)thiazole-2-carboxamide]	6.00 to 6.30		< 6.00
CC(C)(C)Cc1nc2cnc(-n3nccn3)cc2n1[C@H]1CCC[C@@H](NC(=O)c2ccc(Cl)s2)[C@@H]1O [Example 388, 5-chloro-N-((1R,2S,3S)-2-hydroxy-3-(2-neopentyl-6-(2H-1,2,3-triazol-2-yl)-1H-imidazo[4,5-c]pyridin-1-yl)cyclohexyl)thiophene-2-carboxamide]	< 6.00	E	
CC(C)(C)Cc1nc2cnc(-c3ccccn3)cc2n1[C@H]1CCC[C@@H](NC(=O)c2ncc(Cl)s2)[C@@H]1O [Example 390, 5-chloro-N-((1R,2S,3S)-2-hydroxy-3-(2-neopentyl-6-(pyridin-2-yl)-1H-imidazo[4,5-c]pyridin-1-yl)cyclohexyl)thiazole-2-carboxamide]	6.30 to 7.00		< 6.00
CC(C)Cc1nc2cnc(-c3cccc(C#N)n3)cc2n1[C@H]1CCC[C@@H](NC(=O)c2ncc(Cl)s2)[C@@H]1O [Example 391, 5-chloro-N-((1R,2S,3S)-3-(6-(6-cyanopyridin-2-yl)-2-isobutyl-1H-imidazo[4,5-c]pyridin-1-yl)-2-hydroxycyclohexyl)thiazole-2-carboxamide]	< 6.00	E	
O=C(N[C@@H]1CCCC[C@H](n2c(-c3ccccc3F)nc3cnc(-c4nc[nH]n4)cc32)[C@H]1O)c1ccc(Cl)s1 [Example 404, 5-chloro-N-((1R,2S,3S)-3-(2-(2-fluorophenyl)-6-(1H-1,2,4-triazol-3-yl)-1H-imidazo[4,5-c]pyridin-1-yl)-2-hydroxycycloheptyl)thiophene-2-carboxamide]	6.30 to 7.00		6.00 to 6.30
COc1cccc(F)c1-c1nc2cnc(-c3nc[nH]n3)cc2n1[C@H]1CCCC[C@@H](NC(=O)c2ccc(Cl)s2)[C@@H]1O [Example 406, 5-chloro-N-((1R,2S,3S)-3-(2-(2-fluoro-6-methoxyphenyl)-6-(1H-1,2,4-triazol-3-yl)-1H-imidazo[4,5-c]pyridin-1-yl)-2-hydroxycycloheptyl)thiophene-2-carboxamide]	6.00 to 6.30	E	
